Consider 8 molecules from PMC12126322, “Characterisation of the thermophilic P450 CYP116B305 identified using metagenomics-derived sequence data from an Australian hot spring” (Applied Microbiology and Biotechnology, 2025).

In assay [1] the target is CYP116B305. The assay is described as follows: Substrate binding by UV-visible difference spectroscopy (KD, heme spin-state shift). On the set-up: species or system Geminicoccaceae. As to conditions: for Kd: difference spectroscopy, CYP116B305 2–4 µM, substrate 0–100 µM; for Spin-state shift (%): low-spin to high-spin heme shift on substrate binding.
The subject of assay [2] is CYP116B305. The assay is described as follows: Cytochrome c reduction assay with NADPH as electron donor. Type of assay: biochemical, Geminicoccaceae. As to conditions: cytochrome c as artificial electron acceptor. The protocol:
Similarly, a cytochrome c reduction assay was also performed to derive the kinetic parameters, following established protocols (Guengerich et al. [2009]; Tavanti et al. [2018b]). Reactions contained cytochrome c (equine heart, Sigma-Aldrich, 50 µM), CYP116B305 (200 nM), catalase (1 µM), and varying concentrations of NADPH (0.5–200 µM). Cytochrome c reduction was monitored as described above, and nonlinear regression analysis (GraphPad Prism) was utilised to determine the KM and kcat values.

Assay [3] deals with CYP116B305. The assay is described as follows: NAD(P)H consumption assay (cofactor preference, oxidation rates). Type of assay: biochemical, Geminicoccaceae. As to conditions: for Km: cofactor oxidation in the presence of 2-HPA, read-out: KM of nicotinamide cofactor; for NADH consumption rates / NADPH consumption rates: 33% FMN inclusion, min^−1; for NADH consumption rates (100% FMN rates) / NADPH consumption rates (100% FMN rates): corresponding to full FMN incorporation, approximate maximum. The procedure: The consumption rates were calculated using nonlinear regression (GraphPad Prism), fitting to either the Michaelis–Menten or a quadratic velocity equation to determine the apparent KM and kcat values.

Assay [4] deals with CYP116B305. The assay is described as follows: In vitro catalytic turnovers and coupling efficiency (GC-MS). Type of assay: biochemical, Geminicoccaceae. As to conditions: for Coupling (NADPH): product formed to NADPH consumed. The protocol:
The reaction mixtures contained CYP116B305 (1 µM) in KPi buffer (50 mM, pH 7.4), catalase (1 µM), substrate (600 µM), and NAD(P)H (1.2 mM). Reactions were conducted at both room temperature (25 °C) and elevated temperature (45 °C) under constant stirring for 1 h. A control reaction, omitting the P450 enzyme, was also performed. Post-incubation, reaction mixtures were acidified to pH 0–2 with HCl (except for 4-methoxyacetophenone assays), followed by extraction with ethyl acetate (3 × 1 mL). The combined organic phases were dried over magnesium sulphate and concentrated to 100 µL under a stream of nitrogen gas. Concentrated samples were derivatised with N,O-bis(trimethylsilyl)trifluoroacetamide (BSTFA-TMS) before being analysed by gas chromatography–mass spectrometry (GC–MS; Zebron ZB-5MS column 30 m × 0.25 mm × 0.25 µm). The method was 50 °C for 5 min followed by increments of 16 °C min^−1 until 250 °C was reached, then held for 5 min.
For coupling efficiency analysis, the NAD(P)H concentration was reduced to 200 µM, and an internal standard (100 µM) was added to the reactions prior to acidification and extraction. […] In the case of 4-methoxyacetophenone, the reactions were stirred for 2 h, and product formation (4-hydroxyacetophenone) was then quantified using a standard curve generated from 4-hydroxyacetophenone (0.05–1 mM) and an internal standard (fluorene; 100 µM).

[5] abbreviates: in the presence of 2-HPA, 25 °C.

A word on the Kd: it is the equilibrium constant for the complex coming apart. By Km is commonly meant the concentration of substrate that gives half-maximal velocity.

Structures are written as SMILES.

For `O=C(O)Cc1ccccc1` [Phenylacetic acid], at CYP116B305 [1], the Kd was determined as 39 ± 11 µM and the “Spin-state shift (%)” value worked out at 34 ± 6%. Further, the “Spin-state shift (%)” value in the assay with CYP116B305 [1] (listed as phenylacetic acid) is reported as 34 ± 6%.
For `NC(=O)C1=CN([C@@H]2O[C@H](COP(=O)(O)OP(=O)(O)OC[C@H]3O[C@@H](n4cnc5c(N)ncnc54)[C@H](OP(=O)(O)O)[C@@H]3O)[C@@H](O)[C@H]2O)C=CC1` [NADPH, reference compound], in the assay on CYP116B305 [2], the Km was found to be 1.2 ± 0.1 µM and the “kcat for NADPH” value was found to be 0.0683 ± 0.0017 s⁻¹. The Km with CYP116B305 [3] (25 °C) came to 4.1 ± 0.3 µM. In addition, in the assay with CYP116B305 [3] (setting [5]), the “fold lower KM compared to NADH” value worked out at 15 fold and the “kcat of nicotinamide cofactor oxidation” value came to 0.217 ± 0.017 s⁻¹.
`O=C(O)Cc1ccc(O)cc1` [4-Hydroxyphenylacetic acid]: at CYP116B305 [1], the Kd turned out to be 65 ± 13 µM and the “Spin-state shift (%)” value came to 17 ± 1%. For the same molecule, the “Spin-state shift (%)” value with CYP116B305 [1] (listed as 4-hydroxyphenylacetic acid) is on record as 17 ± 1%.
On to `COc1ccc(C(C)=O)cc1` [4-Methoxyacetophenone], for which the “product formation with NADH as electron donor” value in the assay on CYP116B305 [4] (4-hydroxyacetophenone product, NADH) is reported as “no product was observed”. For the same molecule, the “Coupling (NADPH)” value in the assay with CYP116B305 [4] (25 °C) was “n.q”. Besides, the “Coupling (NADPH)” value in the assay on CYP116B305 [4] (45 °C, listed as 4-Methoxy acetophenone) worked out at 24 ± 5%. In the assay on CYP116B305 [4] (45 °C, listed as 4-methoxyacetophenone), the “Coupling (NADPH)” value is on record as 24 ± 5%. Besides, at CYP116B305 [1], the Kd was determined as 73 ± 6 µM and the “Spin-state shift (%)” value is listed as 26 ± 3%. The “Spin-state shift (%)” value in the assay on CYP116B305 [1] (listed as 4-methoxyacetophenone) is listed as 26 ± 3%. Further, in the assay on CYP116B305 [3] (25 °C), the NADH consumption rates is 2 ± 1 µM (µM^−1 P450) min^−1 and the “NADH consumption rates (100% FMN rates)” value is ~6 µM (µM^−1 P450) min^−1. Moreover, in the assay with CYP116B305 [3] (45 °C), the NADH consumption rates is given as 3 ± 1 µM (µM^−1 P450) min^−1, the NADPH consumption rates is 1 ± 1 µM (µM^−1 P450) min^−1, the “NADH consumption rates (100% FMN rates)” value is ~9 µM (µM^−1 P450) min^−1 and the “NADPH consumption rates (100% FMN rates)” value is ~3 µM (µM^−1 P450) min^−1.
With `O=C(O)c1ccccc1O` [Salicylic acid], on CYP116B305 [1], the Kd was 43 ± 6 µM and the “Spin-state shift (%)” value is given as 25 ± 2%. In the assay with CYP116B305 [1] (listed as salicylic acid), the “Spin-state shift (%)” value was 25 ± 2%.
As for `O=C(O)/C=C/c1ccccc1` [trans-Cinnamic acid], at CYP116B305 [1], the Kd was found to be 61 ± 19 µM and the “Spin-state shift (%)” value is recorded as 13 ± 4%. For the same molecule, the “Spin-state shift (%)” value with CYP116B305 [1] (listed as trans-cinnamic acid) was determined as 13 ± 4%.
For the molecule `O=C(O)CCc1ccccc1O` [HPPA, 3-(2-hydroxyphenyl)propionic acid], the “Coupling (NADPH)” value with CYP116B305 [4] (25 °C) is reported as 15 ± 2%. Besides, the “Coupling (NADH)” value in the assay with CYP116B305 [4] (45 °C, product formed to NADH consumed) was 15 ± 9%. Further, the “Coupling (NADPH)” value in the assay with CYP116B305 [4] (45 °C) came to 26 ± 1%. Also, on CYP116B305 [1], the Kd turned out to be 0.4 ± 0.2 µM and the “Spin-state shift (%)” value worked out at 90 ± 5%. Besides, the “Spin-state shift (%)” value in the assay with CYP116B305 [1] (listed as 3-(2-Hydroxyphenyl)propionic acid (HPPA)) was 90 ± 5%. Further, in the assay on CYP116B305 [3] (25 °C), the NADH consumption rates is 31 ± 3 µM (µM^−1 P450) min^−1, the NADPH consumption rates is 11 ± 1 µM (µM^−1 P450) min^−1 and the “NADPH consumption rates (100% FMN rates)” value was ~33 µM (µM^−1 P450) min^−1. In addition, in the assay with CYP116B305 [3] (45 °C compared to 25 °C), the “fold increase of NADH oxidation rate” value was determined as 2.4 fold and the “fold increase of NADPH oxidation rate” value was “sixfold”. For the same molecule, in the assay on CYP116B305 [3] (45 °C), the NADH consumption rates was 73 ± 2 µM (µM^−1 P450) min^−1, the NADPH consumption rates is recorded as 65 ± 3 µM (µM^−1 P450) min^−1, the “NADH consumption rates (100% FMN rates)” value is on record as ~221 µM (µM^−1 P450) min^−1 and the “NADPH consumption rates (100% FMN rates)” value is listed as ~196 µM (µM^−1 P450) min^−1.
On to `NC(=O)C1=CN([C@@H]2O[C@H](COP(=O)(O)OP(=O)(O)OC[C@H]3O[C@@H](n4cnc5c(N)ncnc54)[C@H](O)[C@@H]3O)[C@@H](O)[C@H]2O)C=CC1` [NADH, reference compound], for which the Michaelis-Menten constant (Km) in the assay on CYP116B305 [3] (25 °C) was determined as 60 ± 15 µM. Further, in the assay with CYP116B305 [3] (setting [5]), the “kcat of nicotinamide cofactor oxidation” value was 0.65 ± 0.067 s⁻¹.
